Experimental data reported in patent US8598132B2, “Glycosylated indolocarbazoles, method for obtaining same and uses thereof” (Universidad de Oviedo, priority 2008, dated 2013).

Molecular target: T1, FLT3 (Homo sapiens, UniProt P36888)
T1 construct: purchased Upstate
T1 sequence (P36888 27-993): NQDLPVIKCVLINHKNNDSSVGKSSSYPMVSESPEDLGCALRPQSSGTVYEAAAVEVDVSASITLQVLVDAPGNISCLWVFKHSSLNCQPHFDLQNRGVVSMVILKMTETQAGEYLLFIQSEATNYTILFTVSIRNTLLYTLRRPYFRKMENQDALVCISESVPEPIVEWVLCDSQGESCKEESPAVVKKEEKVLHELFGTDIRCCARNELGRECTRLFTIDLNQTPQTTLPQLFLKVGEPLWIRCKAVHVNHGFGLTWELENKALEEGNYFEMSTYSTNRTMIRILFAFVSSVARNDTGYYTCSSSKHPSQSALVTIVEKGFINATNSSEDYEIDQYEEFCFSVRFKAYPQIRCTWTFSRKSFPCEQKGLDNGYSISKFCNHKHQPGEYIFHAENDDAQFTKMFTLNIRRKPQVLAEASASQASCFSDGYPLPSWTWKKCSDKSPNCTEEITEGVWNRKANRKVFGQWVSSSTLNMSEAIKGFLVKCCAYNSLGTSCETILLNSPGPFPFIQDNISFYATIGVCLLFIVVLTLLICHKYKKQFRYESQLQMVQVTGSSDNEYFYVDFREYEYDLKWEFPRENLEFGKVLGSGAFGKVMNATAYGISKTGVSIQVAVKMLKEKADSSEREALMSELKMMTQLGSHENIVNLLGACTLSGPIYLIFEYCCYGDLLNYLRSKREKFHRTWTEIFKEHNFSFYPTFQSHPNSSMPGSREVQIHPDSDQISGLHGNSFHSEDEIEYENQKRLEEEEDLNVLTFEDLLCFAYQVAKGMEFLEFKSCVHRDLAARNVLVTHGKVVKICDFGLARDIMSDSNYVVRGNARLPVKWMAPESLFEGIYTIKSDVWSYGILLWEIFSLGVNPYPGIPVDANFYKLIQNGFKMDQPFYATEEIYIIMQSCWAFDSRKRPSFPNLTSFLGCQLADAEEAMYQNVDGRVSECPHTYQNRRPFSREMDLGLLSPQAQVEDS
Assay: LabChip (Caliper) kinase assay, FLT3
Type: biochemical
Conditions: for inhibition at 0.01 µM / inhibition at 0.1 µM: FLT3, read-out: remaining kinase activity (in %) / percentage of inhibition; for inhibition at 0.01 µM: compound at 10 nM; for inhibition at 0.1 µM: compound at 100 nM; for IC50: Ftl3, ATP at Km, read-out: CI50 (the source's name)
Protocol: The analysis of kinase activity described here was performed using LabChip (Caliper Life Sciences), specifically the Caliper LC3000 and the EZ Reader II instruments.
The kinase assay used measures the conversion of a fluorescent peptide (substrate) to a phosphorylated product. The reaction mixture, in a microplate well, is introduced by a capillary in a chip where the non-phosphorylated substrate and the phosphorylated product are separated by […]. The intensity of the fluorescent signal over time is related to the reaction progress. The phosphorylated product migrates quicker than the non-phosphorylated substrate and the signals of the two forms of the peptide appear as differentiated peaks. The Caliper determines the peak height and calculates the ratio of product to the peak sum (P/(P+S)). This value is used to compare wells with compounds and wells with controls and thus determine the % of inhibition for the given product.
The followings kinases were used for the enzymatic inhibition studies, between brackets the value of the Michaelis-Menten constant, Km, of the ATP (Adenosine triphosphate) for each kinase, in μM: obtained from Carna Biosciences: MAPKAPK2 (4.6), AurA (3.6), AurB (5), PKCζ (3.8), RSK1 (23.3), PRAK (5), Erk1 (33.4), PKD2 (32.1), CK1d (16.3), CHK1 (33), ABL (61.7), FYN (36), LYNa (17), CHK2 (57.8), MET (79.5), LCK (28.5), SRC (38), GSK3β (7.3), Erk2 (62.1), PKACα (1.7), AKT2 (186.1), INSR (871.8), p38a (396.5), AKT1(48), MSK1 (21.2), PKCβ2 (84.8), ROCK2 (3.3), PIM2 (4.9), AMPK (38.6), KDR (164.8), IRAK4 (196.5), SGK1 (121.8), SYK (33.5); obtained from Invitrogen: CDK2 (57.6), BTK (123), HGK (80); obtained from Upstate: MST2 (36.6), PKGα (16), PAK2 (1.9), IGF1R (320), FGFR1 (171), MARK1 (33), CAMK2δ (22.4), c-TAK1 (66), DYRK1a (18.1), CaMK4 (3.9), FLT3 (350), c-Raf (6.2), P70S6K (95).
The compounds were dissolved in 100% DMSO and were diluted at 25 times the final concentration desired for the assay. In the case of the determination of Cl50, serial dilutions were made to reach eight concentrations and give rise to the inhibition curve. 1 μL of each concentration is transferred, in duplicate to a 384-well microplate. 12 μL of enzymatic buffer is added to each well containing purified kinase (several suppliers as indicated above), 100 mM HEPES, pH 7.5, 1 mM DTT (Calbiochem), 0.002% Brij-35 (Sigma) and also in presence of 10 mM MgCl2 as cofactor, except for INSR and IRAK4 wherein 10 mM MnCl2 is used instead of MgCl2. For the kinases CAMK26 and CAMK4, 1 mM CaCl2 and 6.7 μg/mL of calmodulin are also added. For KDR kinase, 0.05% of the CHAPSO detergent is added. For the c-Raf kinase, 10 mM MnCl2 is added. For PKCβ2 0.02 μg/mL of PS/PMA is added. For PKGα se 10 μM of cGMP (cyclic guanosine monophosphate) is added. The compound and the enzyme are left for 15 minutes preincubation and, then, the following are added to each well: 12 μL of peptide buffer/ATP containing 100 mM HEPES, pH 7.5, 1.5 μM peptide marker with fluorescein (specific for the corresponding kinase), ATP (at concentration KM), and 0.002% Brij-35 to start the reaction. Generally, the reactions are incubated for 1-1.5 h at ambient temperature to obtain an adequate conversion (15-40%) of the peptide to the phosphorylated product. The reactions were ended by the addition of 45 μL of buffer containing 0 mM EDTA. The microplates were read by the LabChip 3000 using a 12-channel LabChip. The P/(P+S) values were obtained as described above and the CI50 curves were generated using XIfit.
Table 9a has the 0150 data obtained in pairs of compound-kinase selected from the compounds of formula (VII), (VIII), (IX), (XVI), (XVII) and (XVIII) after taking inhibition measurements at 100 nM and 10 nM. Those couples that provide >70% of inhibition at 10 nM were consider for measuring its IC50. […]

SMILES | inhibition at 0.01 µM [%] | inhibition at 0.1 µM [%] | IC50 [pM]
C[C@H]1O[C@@H](n2c3ccccc3c3c4c(c5c6ccccc6[nH]c5c32)CNC4=O)C[C@@H](O)[C@@H]1O [formula (XV), N^13-1′-β-D-olivosyl-k252c] | 76 | 106 | –
C[C@]12O[C@H]([C@H](O)[C@H](O)[C@H]1O)n1c3ccccc3c3c4c(c5c6ccccc6n2c5c31)C(=O)NC4=O [formula (VII), N^12-5′(S)-N^13-1′-(R)-L-rhamnosylarcyriaflavin] | – | – | 570
C[C@]12O[C@H]([C@H](O)[C@H](O)[C@H]1O)n1c3ccccc3c3c4c(c5c6ccccc6n2c5c31)CNC4=O [formula (XVI), N^12-5′(S)-N^13-1′-(R)-L-rhamnosyl-k252c] | – | – | 590
C[C@@H]1O[C@@H](n2c3ccccc3c3c4c(c5c6ccccc6[nH]c5c32)C(=O)NC4=O)C[C@H](O)[C@H]1O [formula (IV), N^13-1′-β-L-olivosylarcyriaflavin] | 20 | 81 | –
C[C@H]1O[C@@H](n2c3ccccc3c3c4c(c5c6ccccc6[nH]c5c32)C(=O)NC4=O)C[C@@H](O)[C@@H]1O [formula (VI), N^13-1′-β-D-olivosylarcyriaflavin] | 51 | 98 | –
C[C@@H]1O[C@@H](n2c3ccccc3c3c4c(c5c6ccccc6[nH]c5c32)CNC4=O)C[C@@H](O)[C@H]1O [formula (XIV), N^13-1′-β-L-digitoxosyl-k252c] | 20 | 79 | –
C[C@@H]1O[C@@H](n2c3ccccc3c3c4c(c5c6ccccc6[nH]c5c32)CNC4=O)C[C@H](O)[C@H]1O [formula (XIII), N^13-1′-β-L-olivosyl-k252c] | 34 | 89 | –
C[C@@H]1O[C@@H](n2c3ccccc3c3c4c(c5c6ccccc6[nH]c5c32)C(=O)NC4=O)C[C@@H](O)[C@H]1O [formula (V), N^13-1′-β-L-digitoxosylarcyriaflavin] | 63 | 95 | –
C[C@@H]1O[C@@H](n2c3ccccc3c3c4c(c5c6ccccc6[nH]c5c32)C(=O)NC4=O)[C@H](O)[C@H](O)[C@H]1O [formula (III), N^13-1′-β-L-rhamnosylarcyriaflavin] | -10 | 25 | –
C[C@@H]1O[C@@H](n2c3ccccc3c3c4c(c5c6ccccc6[nH]c5c32)CNC4=O)[C@H](O)[C@H](O)[C@H]1O [formula (XII), N^13-1′-β-L-rhamnosyl-k252c] | -7 | 35 | –
C[C@]12O[C@H](C[C@H](O)[C@H]1O)n1c3ccccc3c3c4c(c5c6ccccc6n2c5c31)C(=O)NC4=O [formula (VIII), N^12-5′(S)-N^13-1′-(R)-L-olivosylarcyriaflavin] | – | – | 560
C[C@]12O[C@H](C[C@@H](O)[C@H]1O)n1c3ccccc3c3c4c(c5c6ccccc6n2c5c31)C(=O)NC4=O [formula (IX), N^12-5′(S)-N^13-1′-(R)-L-digitoxosylarcyriaflavin] | – | – | 430
C[C@]12O[C@H](C[C@H](O)[C@H]1O)n1c3ccccc3c3c4c(c5c6ccccc6n2c5c31)CNC4=O [formula (XVII), N^12-5′(S)-N^13-1′-(R)-L-olivosyl-k252c] | – | – | 540
